Results on 53 molecules are retold here after US8871934B2, “Fluorene compound and pharmaceutical use thereof” (Japan Tobacco Inc., priority 2008, dated 2014).

One may read the IC50 as the concentration at which inhibition is half-maximal.

This test addresses human PDHK2 (hPDHK2) (Homo sapiens (Human), UniProt Q15119). Briefly: Inhibitory action of PDHK activity in vitro (kinase reaction, residual PDH activity measured). It counts as biochemical.
Where [1] appears, read: PDHK inhibitory activity (class symbol).
[2] abbreviates: read-out: PDHK inhibitory activity IC50.
[3] abbreviates: PDHK inhibitory activity, class symbol of IC50.
[4] abbreviates: PDHK inhibitory activity IC50 (μmol/L).

Where two headings read alike, the source gives them in different places.

As for `O=C(O)CCCOc1cc(-c2cnco2)c2c(c1)C(O)(C(F)(F)F)c1ccccc1-2` (stereo not shown) [compound 613], the IC50 was below 100 nM under setting [1] and 76 nM under setting [2].

Regarding `C#Cc1cc(C(N)=O)c2c(c1)C(O)(C(F)(F)F)c1ccccc1-2` (stereo not shown) [compound 632], the IC50 is 100 to 1000 nM under setting [1] and 195 nM under setting [2].

Consider `CC1CCCN1c1ccc2c(c1)C(O)(C(F)(F)F)c1ccccc1-2` (stereo not shown) [compound 293], for which the IC50 under setting [3] is above 1000 nM and the IC50 under setting [2] came to 4950 nM.

`COc1nc2c(cc1C(=O)N1CCC1)C(O)(C(F)(F)F)c1ccccc1-2` (stereo not shown) [compound 235]: the IC50 under setting [3] was 100 to 1000 nM and the IC50 under setting [2] is 803 nM.

Take `Cc1cc(-c2cnn(CC(N)=O)c2)c2c(c1)C(O)(C(F)(F)F)c1ccccc1-2` (stereo not shown) [compound 507]: the IC50 runs as follows: under setting [3], below 100 nM; under setting [2], 26 nM.

In the case of `O=C(O)CCn1cc(-c2cc(F)cc3c2-c2ccccc2[C@]3(O)C(F)(F)F)cn1` (stereo in doubt) [compound 543], the concentration for half-maximal inhibition (IC50) is 36 nM under setting [4] and below 100 nM under setting [3].

As to `Cn1cc(-c2cc(OCCNC(=O)CCC(=O)C(F)(F)F)cc3c2-c2ccccc2C3(O)C(F)(F)F)cn1` (stereo not shown) [compound 464], the IC50 is, setting by setting: under setting [3], below 100 nM; under setting [2], 42 nM.

Consider `COC(=O)COc1cc(Cl)c2c(c1)C(O)(C(F)(F)F)c1ccccc1-2` (single isomer, unassigned) [compound 481, (4-chloro-9-hydroxy-9-trifluoromethyl-9H-fluoren-2-yloxy)-acetic acid methyl ester], for which the IC50 is 100 to 1000 nM under setting [3] and 251 nM under setting [2].

For the molecule `CC(C)(C)Cn1cc(-c2cc(CO)c3c(c2)C(O)(C(F)(F)F)c2ccccc2-3)cn1` (stereo not shown) [compound 650], the IC50 is below 100 nM under setting [1] and 36 nM under setting [2].

Turning to `CNC(=O)C1CCN(c2ccc3c(c2)C(O)(C(F)(F)F)c2ccccc2-3)CC1` (stereo not shown) [compound 231], the IC50 is, setting by setting: under setting [3], above 1000 nM; under setting [2], 3610 nM.

As for `OC1(C(F)(F)F)c2ccccc2-c2ccc(C3CC3)cc21` (stereo not shown) [compound 244], the half-inhibitory concentration (IC50) is, setting by setting: under setting [3], above 1000 nM; under setting [2], 2930 nM.

Regarding `O=C(c1cc(CO)c2c(c1)C(O)(C(F)(F)F)c1ccccc1-2)N1CC(O)C1` (stereo not shown) [compound 644], the IC50 runs as follows: under setting [1], 100 to 1000 nM; under setting [2], 130 nM.

With `OC1(C(F)(F)F)c2ccccc2-c2ccc(Br)cc21` (stereo not shown) [compound 7], the half-inhibitory concentration (IC50) is above 1000 nM under setting [3] and 1440 nM under setting [2].

`Cc1cc(Cl)c2c(c1)[C@](O)(C(F)(F)F)c1ccccc1-2` (stereo in doubt) [compound 520] had an IC50 under setting [4] of 3330 nM and an IC50 under setting [3] above 1000 nM.

With `CCn1cc(-c2cc(CO)c3c(c2)C(O)(C(F)(F)F)c2ccccc2-3)cn1` (single isomer, unassigned) [compound 629, 4-hydroxymethyl-2-(1-ethyl-1H-pyrazol-4-yl)-9-trifluoromethyl-9H-fluoren-9-ol], the IC50 by setting is: under setting [1], below 100 nM; under setting [2], 45 nM.

Regarding `OC1(C(F)(F)F)c2ccccc2-c2c(-c3nnco3)cccc21` (stereo not shown) [compound 140], the half-inhibitory concentration (IC50) runs as follows: under setting [3], above 1000 nM; under setting [2], 2400 nM.

Turning to `O=C(COc1ccc2c(c1)C(O)(C(F)(F)F)c1ccccc1-2)N1CCC[C@H]1CO` (stereo partly shown) [compound 383], the IC50 was above 1000 nM under setting [3] and 1220 nM under setting [2].

In the case of `CC(C)(C)COc1ccc2c(c1)C(O)(C(F)(F)F)c1ccccc1-2` (stereo not shown) [compound 279], the concentration for half-maximal inhibition (IC50) is, setting by setting: under setting [3], above 1000 nM; under setting [2], 1850 nM.

As for `CC(=O)Nc1ccc2c(c1)C(O)(C(F)(F)F)c1ccccc1-2` (stereo not shown) [compound 22], the IC50 under setting [3] is above 1000 nM and the IC50 under setting [2] came out at 16700 nM.

Consider `Oc1ccc2c(c1)C(O)(C(F)(F)F)c1ccccc1-2` (stereo not shown) [compound 38], for which the IC50 is above 1000 nM under setting [3] and 12000 nM under setting [2].

In the case of `Cc1cnc2c(c1)C(O)(C(F)(F)F)c1ccccc1-2` (stereo not shown) [compound 196], the concentration for half-maximal inhibition (IC50) reads like this: under setting [3], 100 to 1000 nM; under setting [2], 475 nM.

`OC1(C(F)(F)F)c2ccccc2-c2c(Cl)cc(F)cc21` (single isomer, unassigned; (+)) [Compound No. 526, (+)-4-chloro-2-fluoro-9-trifluoromethyl-9H-fluoren-9-ol]: the 50% inhibitory concentration (IC50) runs as follows: under setting [2], 397 nM; (read-out: PDHK inhibitory activity, class symbol of IC50) 100 to 1000 nM.

Consider `CN1C(=O)CC[C@@H]1COc1ccc2c(c1)C(O)(C(F)(F)F)c1ccccc1-2` (stereo partly shown) [compound 447], for which the half-maximal inhibitory concentration (IC50) reads like this: under setting [3], 100 to 1000 nM; under setting [2], 202 nM.

Take `OC1(C(F)(F)F)c2ccccc2-c2ccc(N3CCCC3)cc21` (stereo not shown) [compound 160]: the IC50 reads like this: under setting [3], above 1000 nM; under setting [2], 2540 nM.

Take `CC(C)OC(=O)c1cccc2c1-c1ccccc1C2(O)C(F)(F)F` (stereo not shown) [compound 60]: the 50% inhibitory concentration (IC50) was above 1000 nM under setting [3] and 2040 nM under setting [2].

For `O=C(c1ccccc1)c1ccc2c(c1)C(O)(C(F)(F)F)c1ccccc1-2` (stereo not shown) [compound 98], the half-inhibitory concentration (IC50) by setting is: under setting [3], above 1000 nM; under setting [2], 2420 nM.

On to `O=C(COc1ccc2c(c1)C(O)(C(F)(F)F)c1ccccc1-2)N(CCO)CCO` (stereo not shown) [compound 400], for which the IC50 under setting [3] was above 1000 nM and the IC50 under setting [2] turned out to be 7080 nM.

As for `OC1(C(F)(F)F)c2ccccc2-c2c(Br)cccc21` (stereo not shown) [compound 113], the half-maximal inhibitory concentration (IC50) is, setting by setting: under setting [3], above 1000 nM; under setting [2], 1110 nM.

For the molecule `OC[C@@H](O)Cn1cc(-c2cc(F)cc3c2-c2ccccc2C3(O)C(F)(F)F)cn1` (single isomer, unassigned) [compound 565], the IC50 under setting [3] is below 100 nM and the IC50 under setting [2] was found to be 18 nM.

Consider `NC(=O)COc1ccc2c(c1)C(O)(C(F)(F)F)c1ccccc1-2` (stereo not shown) [compound 288], for which the IC50 reads like this: under setting [3], 100 to 1000 nM; under setting [2], 635 nM.

In the case of `CC(C)(O)C(C)(C)n1cc(-c2cc(F)cc3c2-c2ccccc2C3(O)C(F)(F)F)cn1` (single isomer, unassigned) [compound 687], the IC50 runs as follows: under setting [1], below 100 nM; under setting [2], 51 nM.

Take `CN(CCOc1cc(Cl)c2c(c1)C(O)(C(F)(F)F)c1ccccc1-2)S(C)(=O)=O` (stereo not shown) [compound 408]: the concentration for half-maximal inhibition (IC50) is below 100 nM under setting [3] and 65 nM under setting [2].

For the molecule `CN(C)C(=O)c1ccc(-c2ccc3c(c2)C(O)(C(F)(F)F)c2ccccc2-3)cc1Cl` (stereo not shown) [compound 241], the IC50 is below 100 nM under setting [3] and 98 nM under setting [2].

With `Cn1cc(-c2cc(C(=O)N3CCC[C@H]3CO)cc3c2-c2ccccc2C3(O)C(F)(F)F)cn1` (stereo partly shown) [compound 393], the IC50 by setting is: under setting [3], 100 to 1000 nM; under setting [2], 176 nM.

In the case of `CCn1cc(-c2cccc3c2-c2ccccc2C3(O)C(F)(F)F)cn1` (stereo not shown) [compound 347], the IC50 is below 100 nM under setting [3] and 88 nM under setting [2].

Take `CC(=O)Nc1ccc(-c2ccc3c(c2)C(O)(C(F)(F)F)c2ccccc2-3)cc1` (stereo not shown) [compound 197]: the IC50 under setting [3] lay within 100 to 1000 nM and the IC50 under setting [2] turned out to be 298 nM.

As for `O=C(O)CCn1cc(-c2cc(Cl)c3c(c2)C(O)(C(F)(F)F)c2ccccc2-3)cn1` (stereo not shown) [compound 517], the half-inhibitory concentration (IC50) is, setting by setting: under setting [3], below 100 nM; under setting [2], 57 nM.

As to `O=C(c1ccc2c(c1)C(O)(C(F)(F)F)c1ccccc1-2)N1CC(C(=O)N2CCCC2)C1` (stereo not shown) [compound 201], the 50% inhibitory concentration (IC50) is 100 to 1000 nM under setting [3] and 162 nM under setting [2].

For `O=C(c1ccc2c(c1)C(O)(C(F)(F)F)c1ccccc1-2)N1CC1` (stereo not shown) [compound 78], the IC50 by setting is: under setting [3], above 1000 nM; under setting [2], 1360 nM.

In the case of `OC1(C(F)(F)F)c2ccccc2-c2ccc(/C=C/c3ccccc3)cc21` (stereo not shown) [compound 252], the 50% inhibitory concentration (IC50) reads like this: under setting [3], above 1000 nM; under setting [2], 1270 nM.

`CN(CCOc1cc(-c2cnn(C)c2)c2c(c1)C(O)(C(F)(F)F)c1ccccc1-2)C(=O)C(C)(C)C` (stereo not shown) [compound 471]: the half-maximal inhibitory concentration (IC50) is below 100 nM under setting [3] and 26 nM under setting [2].

As for `CNCCOc1ccc2c(c1)C(O)(C(F)(F)F)c1ccccc1-2` (stereo not shown) [compound 321], the IC50 runs as follows: under setting [3], above 1000 nM; under setting [2], 5380 nM.

Regarding `OC1(C(F)(F)F)c2ccccc2-c2ccc(OCC3CCC3)cc21` (stereo not shown) [compound 255], the IC50 is above 1000 nM under setting [3] and 1080 nM under setting [2].

Take `CN(C)C(=O)c1cc(-c2cnn(C)c2)c2c(c1)C(O)(C(F)(F)F)c1ccccc1-2` (stereo not shown) [compound 354]: the IC50 under setting [3] is below 100 nM and the IC50 under setting [2] amounted to 71 nM.

For `O=C(COc1ccc2c(c1)C(O)(C(F)(F)F)c1ccccc1-2)N1CCC1` (stereo not shown) [compound 391], the concentration for half-maximal inhibition (IC50) by setting is: under setting [3], 100 to 1000 nM; under setting [2], 485 nM.

`NC(=O)Cn1cc(-c2cc(OCCC34CC5CC(CC(C5)C3)C4)cc3c2-c2ccccc2C3(O)C(F)(F)F)cn1` (stereo not shown) [compound 508]: the concentration for half-maximal inhibition (IC50) by setting is: under setting [3], below 100 nM; under setting [2], 48 nM.

Consider `NC(=O)c1cccc2c1-c1ccccc1C2(O)C(F)(F)F` (stereo not shown) [compound 33], for which the IC50 under setting [3] was above 1000 nM and the IC50 under setting [2] came to 1810 nM.

With `COC(=O)c1cc(Br)c2c(c1)C(O)(C(F)(F)F)c1ccccc1-2` (single isomer, unassigned) [compound 473], the half-maximal inhibitory concentration (IC50) runs as follows: under setting [3], below 100 nM; under setting [2], 90 nM.

With `CC(C)(C)C(=O)N1CCN(c2cc(Cl)c3c(c2)C(O)(C(F)(F)F)c2ccccc2-3)CC1` (stereo not shown) [compound 271], the half-maximal inhibitory concentration (IC50) was below 100 nM under setting [3] and 56 nM under setting [2].

For `CCOc1cc(-c2cnn(CCC(=O)O)c2)c2c(c1)C(O)(C(F)(F)F)c1ccccc1-2` (single isomer, unassigned) [compound 581], the half-maximal inhibitory concentration (IC50) under setting [3] was below 100 nM and the IC50 under setting [2] amounted to 19 nM.

Consider `O=C(O)CCCOc1ccc2c(c1)C(O)(C(F)(F)F)c1ccccc1-2` (stereo not shown) [compound 258], for which the concentration for half-maximal inhibition (IC50) reads like this: under setting [3], above 1000 nM; under setting [2], 2620 nM.

Regarding `Cc1cc(-c2cnn(CC(CO)CO)c2)c2c(c1)C(O)(C(F)(F)F)c1ccccc1-2` (single isomer, unassigned) [compound 663], the 50% inhibitory concentration (IC50) is below 100 nM under setting [1] and 18 nM under setting [2].

As for `Cn1cc(-c2cc(N3CCC(C(=O)O)CC3)cc3c2-c2ccccc2C3(O)C(F)(F)F)cn1` (stereo not shown) [compound 558], the IC50 runs as follows: under setting [3], below 100 nM; under setting [2], 81 nM.
